pIC50: −log10 of the molar value. Where two headings read alike, the source gives them in different places.
What was measured:
[1] = system: sterol synthesis in the liver; assay: inhibitory activity against sterol synthesis in mouse liver; assay type: in vivo; details: read-out: Sterol-synthesis inhibitory activity ED50
Method: Detemination of inhibitory activity against sterol synsthesis in mouse liver
Sterol synthesis in the liver in mice was measured by the method of Koga et al. [Biochem. Biophys.
15 μl of [^14 C]acetate was intraperitoneally injected into each mouse. One hour later, the animal was sacrificed by decapitation and the liver was excised. Sterol synthesis in the liver was measured by the incorporation of [^14 C]activity into the digitoninprecipitable sterols.
The sterol synthesis activity in a control animal receiving only a 1% Tween 80 solution was defined as 100%.

HMG-CoA reductase = molecular target: T1, HMG-CoA reductase (Rattus norvegicus, UniProt P51639); assay: HMG-CoA reductase inhibitory activity; assay type: biochemical; details: rat liver microsomal fraction, 0.2 mM [14C]HMG-CoA, pH 7.4, 15 minutes at 37° C.
T1 sequence (P51639 1-887): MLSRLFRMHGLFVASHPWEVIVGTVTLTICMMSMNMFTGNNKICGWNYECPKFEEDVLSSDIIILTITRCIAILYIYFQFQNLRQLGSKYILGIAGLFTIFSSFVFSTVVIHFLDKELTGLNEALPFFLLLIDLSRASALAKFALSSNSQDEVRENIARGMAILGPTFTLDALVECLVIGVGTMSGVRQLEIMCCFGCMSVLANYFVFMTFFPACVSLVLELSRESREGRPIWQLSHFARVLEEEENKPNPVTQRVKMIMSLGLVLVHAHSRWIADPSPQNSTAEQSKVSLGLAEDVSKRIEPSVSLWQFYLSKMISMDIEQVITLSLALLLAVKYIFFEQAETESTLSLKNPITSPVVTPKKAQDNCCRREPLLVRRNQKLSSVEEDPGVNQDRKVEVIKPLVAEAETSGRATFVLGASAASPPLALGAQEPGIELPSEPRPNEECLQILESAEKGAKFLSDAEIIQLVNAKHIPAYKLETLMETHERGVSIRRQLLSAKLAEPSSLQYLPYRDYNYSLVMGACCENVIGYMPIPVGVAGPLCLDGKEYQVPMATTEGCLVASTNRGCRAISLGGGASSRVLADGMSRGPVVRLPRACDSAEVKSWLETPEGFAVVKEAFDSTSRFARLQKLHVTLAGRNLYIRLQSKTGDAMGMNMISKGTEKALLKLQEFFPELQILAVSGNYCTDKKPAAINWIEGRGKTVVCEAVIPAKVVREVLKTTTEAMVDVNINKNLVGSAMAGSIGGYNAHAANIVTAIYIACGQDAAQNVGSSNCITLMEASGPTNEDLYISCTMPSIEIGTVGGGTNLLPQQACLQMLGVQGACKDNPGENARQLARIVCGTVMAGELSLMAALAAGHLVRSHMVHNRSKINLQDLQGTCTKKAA

[2] = mice, oral, 2 hours before [14C]acetate, dose required to inhibit sterol synthesis in the liver by 50%

| pIC50 (HMG-CoA reductase) | SMILES | ED50 ([1]; po) [mg/kg] | ED50 [1, 2] [mg/kg] |
| --- | --- | --- | --- |
| 7.47 | CCC(C)(CC)C(=O)O[C@H]1C[C@H](O)C=C2C=C[C@H](C)[C@H](CC[C@@H](O)C[C@@H](O)CC(=O)O)[C@H]21 [Example 51, Sodium (3R,5R)-3,5-dihydro-7-[(1S,2S,6S,8S,8aR)-6-hydroxy-2-methyl-8-(2-ethyl-2-methylbutyryloxy)-1,2,6,7,8,8a-hexahydro-1-naphthyl]heptanoate] |  | 0.063 |
| 7.49 | CCC(CC)(CC)C(=O)O[C@H]1C[C@H](O)C=C2C=C[C@H](C)[C@H](CC[C@@H](O)C[C@@H](O)CC(=O)O)[C@H]21 [Example 52, Sodium (3R,5R)-3,5-dihydroxy-7-[(1S,2S,6S,8S,8aR)-6-hydroxy-2-methyl-8-(2.2-diethylbutyryloxy)-1,2,6,7,8,8a-hexahydro-1-naphthyl]heptanoate] |  | 0.054 |
| 7.46 | C=CCC(CC)(CC)C(=O)O[C@H]1C[C@H](O)C=C2C=C[C@H](C)[C@H](CC[C@@H](O)C[C@@H](O)CC(=O)O)[C@H]21 [Example 64, Sodium (3R,5R),3,5-dihydroxy-7-[(1S,2S,6S,8S,8aR)-6-hydroxy-2-methyl-8-(2,2-diethyl-4-pentenoyloxy)-1,2,6,7,8,8a-hexahydro-1-naphthyl]heptanoate] |  | 0.13 |
| 7.44 | C=CCC(CC)(CC=C)C(=O)O[C@H]1C[C@H](O)C=C2C=C[C@H](C)[C@H](CC[C@@H](O)C[C@@H](O)CC(=O)O)[C@H]21 [Example 65, Sodium (3R,5R)-3,5-dihydroxy-7-[(1S,2S,6S,8S,8aR)-6-hydroxy-2-methyl-8-(2-allyl-2-ethyl-4-pentenoyloxy)-1.2.6,7,8,8a-hexahydro-1-naphthyl]heptanoate] |  | 0.19 |
| 7.49 | CCC[C@](C)(CC)C(=O)O[C@H]1C[C@H](O)C=C2C=C[C@H](C)[C@H](CC[C@@H](O)C[C@@H](O)CC(=O)O)[C@H]21 [Example 67, Sodium (3R,5R)-3,5-dihydroxy-7-[(2S,2S,6S,8S,8aR)-6-hydroxy-2-methyl-8-(2-ethyl-2-methylvaleryloxy)-1,2,6,7,8,8a-hexahydro-1-naphthyl]heptanoate] |  | 0.048 |
| 7.48 | CCCCC(C)(C)C(=O)O[C@H]1C[C@H](O)C=C2C=C[C@H](C)[C@H](CC[C@@H](O)C[C@@H](O)CC(=O)O)[C@H]21 [Example 69, Sodium (3R,5R)-3,5-dihydroxy-7-[(1S,2S,6S,8S,8aR)-6-hydroxy-2-methyl-8-[2,2-dimethylhexanoyloxy)-1,2.6.7,8,8a-hexahydro-1-naphthyl]heptanoate] |  | 0.028 |
| 7.35 | CCC(C)(C)C(=O)OC1CC(O)C=C2C=CC(C)C(CCC3CC(O)CC(=O)O3)C21 (stereo not shown) [Prior art cpd., reference compound] |  | 0.58 |

| SMILES | pIC50 (HMG-CoA reductase) | ED50 ([1]; po) [mg/kg] | ED50 [1, 2] [mg/kg] |
| --- | --- | --- | --- |
| CCCC(CCC)C(=O)O[C@H]1C[C@H](O)C=C2C=C[C@H](C)[C@H](CC[C@@H](O)C[C@@H](O)CC(=O)[O-])[C@H]21.[Na+] | 7.45 | 0.15 |  |

From US5451688A, “Hexahydronaphthalene ester derivatives, their preparation and their therapeutic uses” (Sankyo Company, Limited, priority 1992, dated 1995)
